Tests used:
BALB/MK karatinocytes = assay: [3H]-thymidine incorporation, measurement of biological activities; type: cell-based; details: FIG. 5; for biological activity compared with natural thymosin β-4: BALB/MK keratinocytes, thymidine incorporation
Experimental: The biological activities of the purified acetyl-octapetide of Example 2 were evaluated using BALB/MK karatinocytes according to Falco et al method to measure [^3H]-thymidine incorporation (Falco, et al. (1988) Oncogene., 2, 573). BALB/MK karatinocytes were cultured in 250 ml-flasks containing EMEM (Eagle's minimal essential media, Gibco, U.S.A.) supplemented with […] (fetal bovine serum). BALB/MK karatinocytes cultured were treated with 0.25% trypsin solution to detach cells from the bottom of culture flasks and centrifuged to collect cell pellets. Cells were resuspended in EMEM not containing FBS, its aliquot, 2×10^4 cells/0.3 ml medium was added to each well of 24-well plates and cultured under 7% CO2 for 24 hr at 37° C. 2 ng/ml of the acetyl octapeptide prepared in Example 2 was serially diluted by two-fold using EMEM containing 0.2 (w/v) % bovine serum albumin and 0.3 ml of the diluted peptide was added to each well, followed by additional culturing under 7% CO2 for 6 hr at 37° C. Afterwards, 0.5 μCi of [^3H]-thymidine (Amersham, TRK 686, 68 Ci/mmol) was added to each well and incubated overnight. After removing supernatants, cells were washed once using PBS (phosphate buffered saline) and incubated with 0.1 ml of 0.25% trypsin solution for 5 min at 37° C. to detach cells from the bottom of plates. 0.5 ml of EMEM containing 10% FBS was added to each well and cells were adhered to glass fiber filters using a cell harvester (12 well cell harvester, Millipore, U.S.A.). The filters were washed once with 1 ml of distilled water and once with 1 ml of ethanol, and kept to stand for 30 min at 60° C. for drying. The dried filters were added along with 2 ml of scintillation cocktail to scintillation vials and allowed to stand for 30 min at room temperature, after which radioactivity incorporated into cells was determined using a scintillation counter (Beckman, U.S.A) as shown in FIG. 5.

HaCaT keratinocytes = assay: SRB colorimetric assay, growth of HaCaT keratinocytes; type: cell-based, human; details: 10 ng/ml or 1,000 ng/ml, 72 hr, serum-free medium; FIGS. 7 and 8
Experimental: To analyze effects of peptides of this invention on proliferation of keratinocytes, SRB (Sulforhodamine B) colorimetric assay was carried out using HaCaT kerationcyte according to Rizzino et al method (Rizzino, et al. Cancer Res., 48:4266 (1988)). HaCaT ketatinocytes (The Korean Cell Line Bank) were cultured in 250 ml-flasks containing EMEM (Eagle's minimal essential media, Gibco, U.S.A.) supplemented with […] (fetal bovine serum). HaCaT ketatinocytes cultured were treated with 0.25% trypsin solution to detach cells from the bottom of culture flasks and centrifuged to collect cell pellets. Cells were resuspended in EMEM not containing FBS, its aliquot (4×10^3) cells was added to each well of 96-well plates and cultured under 7% CO2 for 24 hr at 37° C. After 24-hr culture, the medium was changed with a fresh medium not containing serum and cells were incubated with thymosin β-4 or the acetyl-octapeptide (10 ng/ml or 1,000 ng/ml) dissolved in 10% DMSO for 72 hr under the same conditions as described above. After removing supernatants, cells were washed once using PBS (phosphate buffered saline) and incubated with SRB solution (Sigma-Aldrich). Cells were washed with PBS and observed under a microscope to find cell viability. In addition, absorbance at 590 nm was measured to analyze cell proliferation (FIG. 7). […]

procollagen = assay: Procollagen level in HaCaT cell line (Procollagen ELISA kit); type: cell-based, human; details: HaCaT keratinocytes, 1 μg/ml; FIG. 9
Experimental: (§1) Furthermore, HaCaT cell line was treated with the acetyl-octapeptide of this invention (1 μg/ml) and the level of procollagen, one of indicators to show the improvement in skin wrinkle, was examined (FIG. 9). The level of procollagen was measured using Procollagen ELISA kit (Takara). For verifying effects on levels of hyaluronic acid, another indicator representing the improvement in skin wrinkle, HaCaT cell line was incubated with the acetyl-octapeptide of this invention (5 μmole) and the level of hyaluronic acid was measured using Hyaluronic acid ELISA kit (Echelon Biosciences Inc, USA) (FIG. 10).

hyaluronic acid = assay: Hyaluronic acid level in HaCaT cell line (Hyaluronic acid ELISA kit); type: cell-based, human; details: HaCaT keratinocytes, 5 μmole; FIG. 10
Experimental: as §1

C3H/HeN mice = assay: Hair-growth activities in mice with hair removed; type: in vivo; details: Formulation Example 5 applied on back for 25 days, initial hair growth effects, hair length and number, FIG. 12
Description: The hairs of the back portions of C3H/HeN mice were completely removed using a hair cutter and a hair loss-inducing substance. One day later, Formulation Example 5 (cosmetic liquid) was applied onto the back portions for 25 days and then hair growth was observed.

Which “[3H]-thymidine incorporation into keratinocytes” value (BALB/MK karatinocytes; 2 ng/ml serially diluted two-fold) does the source give for “Ac-Lys-Leu-Lys-Lys-Thr-Glu-Thr-Gln-OH (Ac-KLKKTETQ-OH) [acetyl octapeptide]” here?
The value was “promotes thymidine incorporation into kerationcytes in a dose-dependent fashion”.

What about the “biological activity compared with natural thymosin β-4” value (BALB/MK karatinocytes) of the same substance?
Its value is “high biological activities similar to intact Tβ-4F”.

And the “biological activity compared with natural thymosin β-4” value (BALB/MK karatinocytes; listed as present peptide)?
Its value is “biological activities almost identical to natural-occurring Tβ4”.

And the “cell viability / proliferation of HaCaT keratinocytes versus control” value (HaCaT keratinocytes)?
The value was “much higher cell viability than control”.

And the “level of procollagen in cells” value (procollagen)?
Its value is “increased in a dose-dependent manner”.

And the “level of hyaluronic acid in cells” value (hyaluronic acid)?
Its value is “increased in a dose-dependent manner”.

And the “increase of hair growth compared with control” value (C3H/HeN mice)?
The value was 25-30%.

Reference: patent publication US8106017B2, “Peptides for promoting hair growth and improving wrinkle and cosmetic compositions comprising the same” (Caregen Co., Ltd., priority 2005, dated 2012)
